Laboratory results: US5424456A, “N-arylalkylderivatives of 2-aminomethyl-2,3-dihydro-1,4-benzodioxine and the process of preparation thereof” (Vyzkumny Ustav Pro Farmacii A Biochemii s.p., priority 1991, dated 1995)
pIC50: −log10 of the molar value.

How the values were obtained:
[1] = tested on: blood pressure; experiment: Hypotensive activity, pentobarbital anaesthesized dogs; type: in vivo, dog
Source text: (§1) b) The blood pressure of pentobarbital anaesthesized dogs was registered invasively in arteria femoralis. The average decrease in systolic (SBP) arid diastolic (DBP) blood pressure expressed in per cents of the starting blood pressure level after intravenous and oral administration is shown in Tables 5 and 6.

[2] = target: T1, α-adrenergic (Rattus norvegicus, UniProt P23944); experiment: α-adrenergic blocking activity, norepinephrine-induced contraction of helically cut rat aortic strip; conditions: 37° C., cumulative doses, read-out: IC50 (concentration causing 50% relaxation)
T1 construct: helically cut rat aortic strip; from tissue; host or cells: rat aorta (helically cut strip)
T1 sequence (P23944 1-561): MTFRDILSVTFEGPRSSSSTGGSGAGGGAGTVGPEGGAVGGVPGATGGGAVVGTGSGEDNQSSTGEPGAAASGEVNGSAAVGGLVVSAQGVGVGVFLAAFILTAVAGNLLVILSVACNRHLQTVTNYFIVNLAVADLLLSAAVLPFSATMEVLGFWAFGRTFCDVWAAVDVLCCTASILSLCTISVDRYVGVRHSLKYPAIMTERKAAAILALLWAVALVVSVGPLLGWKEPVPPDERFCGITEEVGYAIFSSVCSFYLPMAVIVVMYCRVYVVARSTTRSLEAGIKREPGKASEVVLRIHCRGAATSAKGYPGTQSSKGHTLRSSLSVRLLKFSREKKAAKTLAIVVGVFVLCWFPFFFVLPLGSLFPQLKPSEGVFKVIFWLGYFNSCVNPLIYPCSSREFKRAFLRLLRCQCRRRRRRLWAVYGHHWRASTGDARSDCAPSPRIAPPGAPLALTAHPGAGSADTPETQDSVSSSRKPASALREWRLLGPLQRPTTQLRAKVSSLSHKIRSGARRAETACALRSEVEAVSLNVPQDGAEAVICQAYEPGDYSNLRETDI
Experimental: a) The α-adrenergic blocking activity of the compounds was tested using a helically cut rat aortic strip in a Krebs-Henselheit solution at 37° C., bubbled with a mixture of 95% O2 and 5% CO2. Norepinephrine induced contractions were detected isometrically. The compounds were added in cumulative doses and the relaxing activity was expressed in per cents of the maximum norepinephrine contraction.

[3] = tested on: urinary bladder sphincter; experiment: Effect on the opening pressure of the urinary bladder sphincter; type: in vivo, rat; conditions: rats, compared with prazosin or terazosin
[4] = tested on: α-adrenergic; experiment: α-adrenergic blocking activity, postdecapitation muscular contractions in rats; type: in vivo, rat; conditions: i.v., 4.2 g/kg (so in the source), 30 minutes prior to decapitation
Experimental: b) The α-adrenergic blocking activity of compounds VUFB 17951 and VUFB 17959 was also shown in the test of influencing the postdecapitation muscular contractions in rats. The test compounds were administered intravenously in the dose of 4.6 mg/kg for VUFB 17951 and […] for VUFB 17959.

[5] = tested on: intraocular pressure; experiment: Effect on the intraocular pressure; type: in vivo, rabbit; conditions: rabbits, topical intraocular administration
[6] = tested on: blood pressure; experiment: Hypotensive activity, pentobarbital anaesthesized rabbits; type: in vivo, rabbit
Source text: as §1, with “a)” for “b)”, “rabbits” for “dogs”, “and” for “arid”, “3” for “5”, “4.” for “6.”

[7] = i.v., 0.45 mg/kg, value 1 of 5 (heads 5/30/60/180 min; probably 1 min)
[8] = i.v., 0.45 mg/kg, value 2 of 5 (heads 5/30/60/180 min; probably 5 min)
[9] = i.v., 0.45 mg/kg, value 3 of 5 (heads 5/30/60/180 min; probably 30 min)
[10] = i.v., 0.45 mg/kg, value 4 of 5 (heads 5/30/60/180 min; probably 60 min)
[11] = i.v., 0.45 mg/kg, value 5 of 5 (heads 5/30/60/180 min; probably 180 min)
[12] = i.v., 4.5 mg/kg, value 1 of 5 (heads 5/30/60/180 min; probably 1 min)
[13] = i.v., 4.5 mg/kg, value 2 of 5 (heads 5/30/60/180 min; probably 5 min)
[14] = i.v., 4.5 mg/kg, value 3 of 5 (heads 5/30/60/180 min; probably 30 min)
[15] = i.v., 4.5 mg/kg, value 4 of 5 (heads 5/30/60/180 min; probably 60 min)
[16] = i.v., 4.5 mg/kg, value 5 of 5 (heads 5/30/60/180 min; probably 180 min)
[17] = p.o., 10.0 mg/kg, value 1 of 5 (heads 30/60/120/180 min)
[18] = p.o., 10.0 mg/kg, value 2 of 5 (heads 30/60/120/180 min)
[19] = p.o., 10.0 mg/kg, value 3 of 5 (heads 30/60/120/180 min)
[20] = p.o., 10.0 mg/kg, value 4 of 5 (heads 30/60/120/180 min)
[21] = p.o., 10.0 mg/kg, value 5 of 5 (heads 30/60/120/180 min)
[22] = p.o., 50.0 mg/kg, value 1 of 5 (heads 30/60/120/180 min)
[23] = p.o., 50.0 mg/kg, value 2 of 5 (heads 30/60/120/180 min)
[24] = p.o., 50.0 mg/kg, value 3 of 5 (heads 30/60/120/180 min)
[25] = p.o., 50.0 mg/kg, value 4 of 5 (heads 30/60/120/180 min)
[26] = p.o., 50.0 mg/kg, value 5 of 5 (heads 30/60/120/180 min)

Cc1ccccc1C(C#N)(CCCNCC1COc2ccccc2O1)C(C)C (racemic) [VUFB 17959, 5-(2,3-dihydro-1,4-benzodioxin-2-ylmethylamino)-2-isopropyl-2-(2-methylphenyl) valeronitrile]
decrease in diastolic blood pressure (DBP) [1, 7]: -52 per cents | decrease in systolic blood pressure (SBP) [1, 7]: -16 per cents | decrease in diastolic blood pressure (DBP) [1, 8]: -23 per cents | decrease in systolic blood pressure (SBP) [1, 8]: -23 per cents | decrease in diastolic blood pressure (DBP) [1, 9]: -16 per cents | decrease in systolic blood pressure (SBP) [1, 9]: -14 per cents | decrease in diastolic blood pressure (DBP) [1, 10]: -16 per cents | decrease in systolic blood pressure (SBP) [1, 10]: -13 per cents | decrease in diastolic blood pressure (DBP) [1, 11]: -2 per cents | decrease in systolic blood pressure (SBP) [1, 11]: -6 per cents | decrease in diastolic blood pressure (DBP) [1, 12]: -63 per cents | decrease in systolic blood pressure (SBP) [1, 12]: -43 per cents | decrease in diastolic blood pressure (DBP) [1, 13]: -46 per cents | decrease in systolic blood pressure (SBP) [1, 13]: -43 per cents | decrease in diastolic blood pressure (DBP) [1, 14]: -29 per cents | decrease in systolic blood pressure (SBP) [1, 14]: -31 per cents | decrease in diastolic blood pressure (DBP) [1, 15]: -25 per cents | decrease in systolic blood pressure (SBP) [1, 15]: -23 per cents | decrease in diastolic blood pressure (DBP) [1, 16]: -14 per cents | decrease in systolic blood pressure (SBP) [1, 16]: -17 per cents | decrease in diastolic blood pressure (DBP) ([1]; p.o., 4.2 mg/kg, 15 min): -5 per cents | decrease in systolic blood pressure (SBP) ([1]; p.o., 4.2 mg/kg, 15 min): -5 per cents | decrease in diastolic blood pressure (DBP) ([1]; p.o., 4.2 mg/kg, 30 min): -20 per cents | decrease in systolic blood pressure (SBP) ([1]; p.o., 4.2 mg/kg, 30 min): -16 per cents | decrease in diastolic blood pressure (DBP) ([1]; p.o., 4.2 mg/kg, 60 min): -20 per cents | decrease in systolic blood pressure (SBP) ([1]; p.o., 4.2 mg/kg, 60 min): -18 per cents | decrease in diastolic blood pressure (DBP) ([1]; p.o., 4.2 mg/kg, 120 min): -20 per cents | decrease in systolic blood pressure (SBP) ([1]; p.o., 4.2 mg/kg, 120 min): -20 per cents | decrease in diastolic blood pressure (DBP) ([1]; p.o., 4.2 mg/kg, 300 min): -21 per cents | decrease in systolic blood pressure (SBP) ([1]; p.o., 4.2 mg/kg, 300 min): -23 per cents | pIC50 [2]: 4.60 | duration of action on opening pressure of the urinary bladder sphincter [3]: longer duration of action | lowering of the opening pressure of the urinary bladder sphincter ([3]; corresponding doses): lowered the opening pressure of the urinary bladder sphincter of rats in corresponding doses in the same extent as prazosin | decrease in number of postdecapitation contractions [4]: highly significant decrease in number of postdecapitation contractions | lowering of the intraocular pressure [5]: lowered significantly the intraocular pressure | decrease in diastolic blood pressure (DBP) ([6]; i.v., 1.0 mg/kg, 1 min): -51 per cents | decrease in systolic blood pressure (SBP) ([6]; i.v., 1.0 mg/kg, 1 min): -47 per cents | decrease in diastolic blood pressure (DBP) ([6]; i.v., 1.0 mg/kg, 5 min): -22 per cents | decrease in systolic blood pressure (SBP) ([6]; i.v., 1.0 mg/kg, 5 min): -23 per cents | decrease in diastolic blood pressure (DBP) ([6]; i.v., 1.0 mg/kg, 30 min): -21 per cents | decrease in systolic blood pressure (SBP) ([6]; i.v., 1.0 mg/kg, 30 min): -22 per cents | decrease in diastolic blood pressure (DBP) ([6]; i.v., 1.0 mg/kg, 60 min): -25 per cents | decrease in systolic blood pressure (SBP) ([6]; i.v., 1.0 mg/kg, 60 min): -14 per cents | decrease in diastolic blood pressure (DBP) ([6]; i.v., 1.0 mg/kg, 180 min): -18 per cents | decrease in systolic blood pressure (SBP) ([6]; i.v., 1.0 mg/kg, 180 min): -8 per cents | decrease in diastolic blood pressure (DBP) ([6]; i.v., 5.0 mg/kg, 1 min): -69 per cents | decrease in systolic blood pressure (SBP) ([6]; i.v., 5.0 mg/kg, 1 min): -60 per cents | decrease in diastolic blood pressure (DBP) ([6]; i.v., 5.0 mg/kg, 5 min): -39 per cents | decrease in systolic blood pressure (SBP) ([6]; i.v., 5.0 mg/kg, 5 min): -35 per cents | decrease in diastolic blood pressure (DBP) ([6]; i.v., 5.0 mg/kg, 30 min): -31 per cents | decrease in systolic blood pressure (SBP) ([6]; i.v., 5.0 mg/kg, 30 min): -26 per cents | decrease in diastolic blood pressure (DBP) ([6]; i.v., 5.0 mg/kg, 60 min): -29 per cents | decrease in systolic blood pressure (SBP) ([6]; i.v., 5.0 mg/kg, 60 min): -27 per cents | decrease in diastolic blood pressure (DBP) ([6]; i.v., 5.0 mg/kg, 180 min): -33 per cents | decrease in systolic blood pressure (SBP) ([6]; i.v., 5.0 mg/kg, 180 min): -25 per cents | decrease in diastolic blood pressure (DBP) [6, 17]: -2 per cents | decrease in systolic blood pressure (SBP) [6, 17]: -2 per cents | decrease in diastolic blood pressure (DBP) [6, 18]: 0 per cents | decrease in systolic blood pressure (SBP) [6, 18]: -3 per cents | decrease in diastolic blood pressure (DBP) [6, 19]: -3 per cents | decrease in systolic blood pressure (SBP) [6, 19]: -4 per cents | decrease in diastolic blood pressure (DBP) [6, 20]: -8 per cents | decrease in systolic blood pressure (SBP) [6, 20]: -1 per cents | decrease in diastolic blood pressure (DBP) [6, 21]: -10 per cents | decrease in systolic blood pressure (SBP) [6, 21]: +3 per cents | decrease in diastolic blood pressure (DBP) [6, 22]: -6 per cents | decrease in systolic blood pressure (SBP) [6, 22]: -9 per cents | decrease in diastolic blood pressure (DBP) [6, 23]: -12 per cents | decrease in systolic blood pressure (SBP) [6, 23]: -18 per cents | decrease in diastolic blood pressure (DBP) [6, 24]: -18 per cents | decrease in systolic blood pressure (SBP) [6, 24]: -26 per cents | decrease in diastolic blood pressure (DBP) [6, 25]: -18 per cents | decrease in systolic blood pressure (SBP) [6, 25]: -29 per cents | decrease in diastolic blood pressure (DBP) [6, 26]: -18 per cents | decrease in systolic blood pressure (SBP) [6, 26]: -31 per cents
